The target in test [1] is T1, serotonin transporter (Rattus norvegicus, UniProt P31652).
T1 construct: frontal cortical membranes prepared from male Sprague-Dawley rats; from tissue; host or cells: frontal cortical membranes of male Sprague-Dawley rats
Kind of test: 3H-paroxetine binding to serotonin transporter in rat frontal cortical membranes. Also noted: species or system male Sprague-Dawley rats.
Experimental: Briefly, frontal cortical membranes prepared from male Sprague-Dawley rats were incubated with ^3 H-paroxetine (0.1 nM) for 60 min at 25° C. All tubes also contained either vehicle, test compound (one to eight concentrations), or a saturating concentration of fluoxetine (10 μM) to define specific binding. All reactions were terminated by the addition of ice cold Tris buffer followed by rapid filtration using a Tom Tech filtration device to separate bound from free ^3 H-paroxetine.

Test [2] has as its target T2, human 5-HT1A receptor (Homo sapiens, UniProt P08908).
T2 construct: expressed in transfected cells
T2 sequence (P08908 1-422): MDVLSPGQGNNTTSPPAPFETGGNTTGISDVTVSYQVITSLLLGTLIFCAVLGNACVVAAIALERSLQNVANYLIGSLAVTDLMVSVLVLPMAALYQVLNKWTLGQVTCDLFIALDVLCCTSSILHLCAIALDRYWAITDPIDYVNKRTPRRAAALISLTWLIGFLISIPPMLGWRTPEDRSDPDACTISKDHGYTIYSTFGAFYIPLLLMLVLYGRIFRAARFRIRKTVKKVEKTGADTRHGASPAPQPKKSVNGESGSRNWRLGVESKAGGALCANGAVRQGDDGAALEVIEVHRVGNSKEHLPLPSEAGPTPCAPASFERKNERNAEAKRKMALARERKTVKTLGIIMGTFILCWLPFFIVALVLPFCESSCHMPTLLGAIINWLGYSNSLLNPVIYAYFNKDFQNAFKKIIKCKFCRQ
Kind of test: [3H]8-OH-DPAT competition binding to cloned human 5-HT1A receptor (CHO cell membranes). The following applies: [3H]8-OH-DPAT 1.5 nM; CHO cells expressing human 5-HT1A.
Experimental: A stable Chinese hamster ovary cell line expressing the human 5-HT1A receptor subtype (5H-HT1A .CHO cells) was employed throughout this procedure. Cells were maintained in DMEM supplemented with 10% fetal calf serum, non-essential amino acids and penicillin/ streptomycin.
Cells were grown to 95-100% confluency as a monolayer before membranes were harvested for binding studies. Cells were gently scraped from the culture plates, transferred to centrifuge tubes, and washed twice by centrifugation (at 2000 rpm for 10 min., 4° C.) in buffer (50 mM Tris; pH 7.5). The resulting pellets were aliquoted and stored at -80° C. until needed. On the day of assay, the cells were thawed on ice, and resuspended in buffer. Studies were conducted using [^3 H]8-OH-DPAT as the radioligand. The binding assay was performed in 96 well microtiter plates in a final total volume of 250 μL of buffer. […] Non-specific binding was determined in the presence of 10 μM 5HT. Saturation analysis was conducted by using [^3 H]8-OH-DPAT at concentrations ranging from 0.3-30 nM. Following a 30 minute incubation at room temperature, the reaction was terminated by the addition of ice cold buffer and rapid filtration using a M-96 Brandel Cell Harvester through a GF/B filter presoaked for 30 minutes in 0.5% polyethyleneimine.

SMILES strings stand for the structures. pKi: −log10 of the molar value.

This is an account of results in patent US6313114A, “3,4-Dihydro-2H-benzo[1,4]oxazinyl-methyl)-[3-(1H-indol-3yl)-alkyl]- amines” (American Home Products Corp, priority 1999, dated 2001).

T1 sequence (P31652 whole entry): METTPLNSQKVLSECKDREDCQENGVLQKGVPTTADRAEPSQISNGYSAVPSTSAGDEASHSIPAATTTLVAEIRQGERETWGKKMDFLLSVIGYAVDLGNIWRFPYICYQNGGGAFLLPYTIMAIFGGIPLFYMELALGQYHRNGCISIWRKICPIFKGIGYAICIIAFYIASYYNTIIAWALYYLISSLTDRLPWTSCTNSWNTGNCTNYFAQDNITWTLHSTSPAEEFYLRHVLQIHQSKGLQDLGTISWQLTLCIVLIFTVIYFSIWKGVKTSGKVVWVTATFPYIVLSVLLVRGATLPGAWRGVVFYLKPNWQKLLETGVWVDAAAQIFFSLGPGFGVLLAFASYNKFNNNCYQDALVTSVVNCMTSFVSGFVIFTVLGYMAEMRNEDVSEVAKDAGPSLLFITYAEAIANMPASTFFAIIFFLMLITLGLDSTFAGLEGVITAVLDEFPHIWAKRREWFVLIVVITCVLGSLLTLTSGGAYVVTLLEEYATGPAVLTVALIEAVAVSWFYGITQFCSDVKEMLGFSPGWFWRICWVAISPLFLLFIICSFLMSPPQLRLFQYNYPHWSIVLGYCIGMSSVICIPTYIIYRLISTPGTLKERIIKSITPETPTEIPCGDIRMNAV

For `c1ccc(CN2CC(CNCCCCc3c[nH]c4ccccc34)Oc3ccccc32)cc1` (centres unmarked) [Example 4, (4-Benzyl-3,4-dihydro-2H-benzo[1,4]oxazin-2ylmethyl)-[3-(1H-indo-3-yl)-butyl]-amine], the pKi (in general, −log10 of the Ki, conventionally taken in molar units) is 7.09 in test [1] and 7.12 in test [2].
